How the values were obtained:
CXCL10 mRNA = assay: Up-regulation of CXCL10 mRNA in vivo after oral administration (RT-qPCR); set-up: species or system C57BL/6 mice; conditions: mice
Protocol: (§1) Production of IFN-α and Up-Regulation of CXCL10 mRNA In Vivo
(§2) The potential of compounds to induce IFN-α production and CXCL10 mRNA up-regulation in vivo was evaluated after oral administration to C57BL/6 mice. The quantity of IFN-α in systemic circulation was followed over time, using a murine pan-IFN-α ELISA (PBL InterferonSource, ref. 42120). This ELISA recognizes all murine IFN-α subtypes. […] CXCL10 mRNA expression levels were followed by RT-qPCR.
For each compound and dose tested, 3 female C57BL/6J mice, from 6-10 weeks of age, 20-22 g of body weight were tested. Animals were given compound 1 as a single oral dose of 15.5 mg/kg as a 1.55 mg/mL solution in 20% aqueous hydroxypropyl β-cyclodextrin vehicle using a feeding tube. 0.5, 1, 2, 4 and 7 hours after dosing, systemic blood was drawn from the tail vein into K-EDTA containing tubes. […] At each time point, the median and standard deviation over the 3 animals was calculated to evaluate the potency of the compound.
Blood was also drawn from the tail vein into micronic tubes containing 500 μl of PAXgene solution (PAXgene blood RNA tubes from PreAnalytix). […] The ΔΔCt method (for relative quantification) was used to evaluate regulation of CXCL10 expression by the compound compared to the vehicle control. At each time point, the median and standard deviation over the 3 animals was calculated to evaluate the potency of the compounds.

IFN-α = assay: Production of IFN-α in vivo after oral administration (murine pan-IFN-α ELISA); set-up: species or system C57BL/6 mice; conditions: mice
Protocol: as §1, §2
For each compound and dose tested, 3 female C57BL/6J mice, from 6-10 weeks of age, 20-22 g of body weight were tested. Animals were given compound 1 as a single oral dose of 15.5 mg/kg as a 1.55 mg/mL solution in 20% aqueous hydroxypropyl β-cyclodextrin vehicle using a feeding tube. 0.5, 1, 2, 4 and 7 hours after dosing, systemic blood was drawn from the tail vein into K-EDTA containing tubes. Plasma was separated from blood cells by centrifugation at 1500 g, 10 min, 4° C. and stored at −80° C. prior to ELISA analysis. At each time point, the median and standard deviation over the 3 animals was calculated to evaluate the potency of the compound.

CCCC[C@@H](CCOC(=O)C(C)C)Nc1nc(NC(=O)C(C)C)ncc1OC [Compound 1]
observed: upregulation of CXCL10 (CXCL10 mRNA; blood, single oral dose of 15.5 mg/kg (FIG. 2B)) | upregulation of CXCL10 (CXCL10 mRNA; liver, single oral dose of 15.5 mg/kg (FIG. 2A)) | Induction of endogenous interferon (IFN-α; liver, single oral dose of 15.5 mg/kg (FIG. 1A)) | Induction of endogenous interferon (IFN-α; plasma, single oral dose of 15.5 mg/kg (FIG. 1B))

Source: US9790191B2, “Substituted acylaminopyrimidines as inducers of alpha interferon production” (JANSSEN SCIENCES IRELAND UC, priority 2012, dated 2017)
